Test results from PubChem BioAssay AID2060602 (Molecular Pharmacology Branch, DTP, NCI, 2025).

System: 648629-189-R-J1-PDC complex spheroids viability
Assay: Anticancer human tumor 648629-189-R-J1-PDC patient-derived bladder carcinoma cell line growth inhibition [CLK]
Details: for IC50: curve of first compound; for viability, T/C: stronger effect = lower value
In short: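 Patient-derived tumor cells grown as complex spheroids with HUVEC endothelial cells and mesenchymal stem cells, treated with drug combinations. Concentrations descend in half-log steps from near clinical Cmax, or from 10 microM if Cmax unknown.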

[1] = second compound 0.0316 µM, first compound 0.0316 µM
[2] = second compound 0.0316 µM, first compound 0.1 µM
[3] = second compound 0.0316 µM, first compound 0.316 µM
[4] = second compound 0.0316 µM, first compound 1 µM
[5] = second compound 0.0316 µM, first compound 3.16 µM
[6] = second compound 0.0316 µM, first compound 10 µM
[7] = second compound 0.1 µM, first compound 0.0316 µM
[8] = second compound 0.1 µM, first compound 0.1 µM
[9] = second compound 0.1 µM, first compound 0.316 µM
[10] = second compound 0.1 µM, first compound 1 µM
[11] = second compound 0.1 µM, first compound 3.16 µM
[12] = second compound 0.1 µM, first compound 10 µM
[13] = second compound 0.316 µM, first compound 0.0316 µM
[14] = second compound 0.316 µM, first compound 0.1 µM
[15] = second compound 0.316 µM, first compound 0.316 µM
[16] = second compound 0.316 µM, first compound 1 µM
[17] = second compound 0.316 µM, first compound 3.16 µM
[18] = second compound 0.316 µM, first compound 10 µM
[19] = second compound 1 µM, first compound 0.0316 µM
[20] = second compound 1 µM, first compound 0.1 µM
[21] = second compound 1 µM, first compound 0.316 µM
[22] = second compound 1 µM, first compound 1 µM
[23] = second compound 1 µM, first compound 3.16 µM
[24] = second compound 1 µM, first compound 10 µM
[25] = second compound 3.16 µM, first compound 0.0316 µM
[26] = second compound 3.16 µM, first compound 0.1 µM
[27] = second compound 3.16 µM, first compound 0.316 µM
[28] = second compound 3.16 µM, first compound 1 µM
[29] = second compound 3.16 µM, first compound 3.16 µM
[30] = second compound 3.16 µM, first compound 10 µM
[31] = second compound 10 µM, first compound 0.0316 µM
[32] = second compound 10 µM, first compound 0.1 µM
[33] = second compound 10 µM, first compound 0.316 µM
[34] = second compound 10 µM, first compound 1 µM
[35] = second compound 10 µM, first compound 3.16 µM
[36] = second compound 10 µM, first compound 10 µM
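Throughout, for viability, T/C: drug exposure lasted seven days before viability readout; 100% = DMSO vehicle control wells.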

`CC1(C)CCC(CN2CCN(c3ccc(C(=O)NS(=O)(=O)c4ccc(NCC5CCOCC5)c([N+](=O)[O-])c4)c(Oc4cnc5[nH]ccc5c4)c3)CC2)=C(c2ccc(Cl)cc2)C1` + CNC(=O)c1ccc(Nc2nc(OC3CCCC3)c3c(-c4ccc5nc(C)oc5c4)c[nH]c3n2)c(OC)c1 showed an IC50 (second compound 0.0316 µM) of over 10 µM, an IC50 (second compound 0.1 µM) of over 10 µM and an IC50 (second compound 0.316 µM) of under 0.0316 µM. For the same compound, the IC50 (second compound 1 µM) was under 0.0316 µM, the IC50 (second compound 3.16 µM) was under 0.0316 µM and the IC50 (second compound 10 µM) was under 0.0316 µM. It also gave a viability, T/C [1] of 100%, a viability, T/C [2] of 114% and a viability, T/C [3] of 108%. It also gave a viability, T/C [4] of 106%, a viability, T/C [5] of 85.3% and a viability, T/C [6] of 103%. The viability, T/C [7] was 86.5%, the viability, T/C [8] was 94% and the viability, T/C [9] was 93.4%. The viability, T/C [10] was 79.2%, the viability, T/C [11] was 71% and the viability, T/C [12] was 100%. It also gave a viability, T/C [13] of 26.3%, a viability, T/C [14] of 30.1% and a viability, T/C [15] of 23.4%. The viability, T/C [16] was 25.6%, the viability, T/C [17] was 29.4% and the viability, T/C [18] was 19.9%. The viability, T/C [19] was 20.7%, the viability, T/C [20] was 24.1% and the viability, T/C [21] was 20.2%. For the same compound, the viability, T/C [22] was 23.4%, the viability, T/C [23] was 26.5% and the viability, T/C [24] was 21.3%. The viability, T/C [25] was 23.1%, the viability, T/C [26] was 23.3% and the viability, T/C [27] was 23.9%. It also gave a viability, T/C [28] of 20.2%, a viability, T/C [29] of 21.6% and a viability, T/C [30] of 17.3%. The viability, T/C [31] was 20.9%, the viability, T/C [32] was 20.7% and the viability, T/C [33] was 19.9%. For the same compound, the viability, T/C [34] was 22%, the viability, T/C [35] was 23.6% and the viability, T/C [36] was 20.4%.

`CC1COCCN1c1cc(C2(S(C)(=N)=O)CC2)nc(-c2ccnc3[nH]ccc23)n1` (stereo not drawn) + CNC(=O)c1ccc(Nc2nc(OC3CCCC3)c3c(-c4ccc5nc(C)oc5c4)c[nH]c3n2)c(OC)c1 showed an IC50 (second compound 0.0316 µM) of 2.41 µM, an IC50 (second compound 0.1 µM) of 3.43 µM and an IC50 (second compound 0.316 µM) of under 0.0316 µM. The IC50 (second compound 1 µM) was under 0.0316 µM, the IC50 (second compound 3.16 µM) was under 0.0316 µM and the IC50 (second compound 10 µM) was under 0.0316 µM. The viability, T/C [1] was 112%, the viability, T/C [2] was 115% and the viability, T/C [3] was 98.5%. For the same compound, the viability, T/C [4] was 83.4%, the viability, T/C [5] was 38.6% and the viability, T/C [6] was 19.3%. For the same compound, the viability, T/C [7] was 90.2%, the viability, T/C [8] was 96.3% and the viability, T/C [9] was 92.1%. For the same compound, the viability, T/C [10] was 74.2%, the viability, T/C [11] was 53.5% and the viability, T/C [12] was 21.3%. It also gave a viability, T/C [13] of 28.9%, a viability, T/C [14] of 34.6% and a viability, T/C [15] of 34.6%. The viability, T/C [16] was 32.4%, the viability, T/C [17] was 22.4% and the viability, T/C [18] was 15.3%. It also gave a viability, T/C [19] of 20.5%, a viability, T/C [20] of 25.6% and a viability, T/C [21] of 19.7%. The viability, T/C [22] was 19.2%, the viability, T/C [23] was 18.9% and the viability, T/C [24] was 16%. For the same compound, the viability, T/C [25] was 16.4%, the viability, T/C [26] was 21.8% and the viability, T/C [27] was 22.3%. For the same compound, the viability, T/C [28] was 23.1%, the viability, T/C [29] was 21.7% and the viability, T/C [30] was 13.9%. It also gave a viability, T/C [31] of 18.6%, a viability, T/C [32] of 19.7% and a viability, T/C [33] of 20.8%. It also gave a viability, T/C [34] of 20.1%, a viability, T/C [35] of 21.9% and a viability, T/C [36] of 12.4%.

For `NC(=O)C(=Cn1cnc(-c2cc(C(F)(F)F)cc(C(F)(F)F)c2)n1)c1cncnc1` + CNC(=O)c1ccc(Nc2nc(OC3CCCC3)c3c(-c4ccc5nc(C)oc5c4)c[nH]c3n2)c(OC)c1, the IC50 (second compound 0.0316 µM) was 0.0522 µM, the IC50 (second compound 0.1 µM) was 0.0445 µM and the IC50 (second compound 0.316 µM) was under 0.00949 µM. It also gave an IC50 (second compound 1 µM) of under 0.00949 µM, an IC50 (second compound 3.16 µM) of under 0.00949 µM and an IC50 (second compound 10 µM) of under 0.00949 µM. For the same compound, the viability, T/C (second compound 0.0316 µM, first compound 0.00949 µM) was 99%, the viability, T/C (second compound 0.0316 µM, first compound 0.03 µM) was 83.4% and the viability, T/C (second compound 0.0316 µM, first compound 0.0949 µM) was 13.9%. The viability, T/C (second compound 0.0316 µM, first compound 0.3 µM) was 5.54%, the viability, T/C (second compound 0.0316 µM, first compound 0.949 µM) was 2.71% and the viability, T/C (second compound 0.0316 µM, first compound 3 µM) was 2.7%. The viability, T/C (second compound 0.1 µM, first compound 0.00949 µM) was 94.1%, the viability, T/C (second compound 0.1 µM, first compound 0.03 µM) was 68.2% and the viability, T/C (second compound 0.1 µM, first compound 0.0949 µM) was 14.8%. The viability, T/C (second compound 0.1 µM, first compound 0.3 µM) was 4.73%, the viability, T/C (second compound 0.1 µM, first compound 0.949 µM) was 2.15% and the viability, T/C (second compound 0.1 µM, first compound 3 µM) was 2.48%. For the same compound, the viability, T/C (second compound 0.316 µM, first compound 0.00949 µM) was 22.4%, the viability, T/C (second compound 0.316 µM, first compound 0.03 µM) was 17.4% and the viability, T/C (second compound 0.316 µM, first compound 0.0949 µM) was 7.71%. The viability, T/C (second compound 0.316 µM, first compound 0.3 µM) was 2.5%, the viability, T/C (second compound 0.316 µM, first compound 0.949 µM) was 1.35% and the viability, T/C (second compound 0.316 µM, first compound 3 µM) was 2.05%. The viability, T/C (second compound 1 µM, first compound 0.00949 µM) was 18.1%, the viability, T/C (second compound 1 µM, first compound 0.03 µM) was 11.5% and the viability, T/C (second compound 1 µM, first compound 0.0949 µM) was 4.85%. It also gave a viability, T/C (second compound 1 µM, first compound 0.3 µM) of 1.29%, a viability, T/C (second compound 1 µM, first compound 0.949 µM) of 0.91% and a viability, T/C (second compound 1 µM, first compound 3 µM) of 0.42%. It also gave a viability, T/C (second compound 3.16 µM, first compound 0.00949 µM) of 14.7%, a viability, T/C (second compound 3.16 µM, first compound 0.03 µM) of 11.7% and a viability, T/C (second compound 3.16 µM, first compound 0.0949 µM) of 5.56%. It also gave a viability, T/C (second compound 3.16 µM, first compound 0.3 µM) of 1.15%, a viability, T/C (second compound 3.16 µM, first compound 0.949 µM) of 1.87% and a viability, T/C (second compound 3.16 µM, first compound 3 µM) of 1.75%. For the same compound, the viability, T/C (second compound 10 µM, first compound 0.00949 µM) was 15.4%, the viability, T/C (second compound 10 µM, first compound 0.03 µM) was 8.85% and the viability, T/C (second compound 10 µM, first compound 0.0949 µM) was 5.59%. The viability, T/C (second compound 10 µM, first compound 0.3 µM) was 1.56%, the viability, T/C (second compound 10 µM, first compound 0.949 µM) was 1.79% and the viability, T/C (second compound 10 µM, first compound 3 µM) was 0.33%.

With `Nc1ccccc1NC(=O)c1ccc(CNC(=O)OCc2cccnc2)cc1` + CNC(=O)c1ccc(Nc2nc(OC3CCCC3)c3c(-c4ccc5nc(C)oc5c4)c[nH]c3n2)c(OC)c1 the IC50 (second compound 0.0316 µM) was 1.59 µM, the IC50 (second compound 0.1 µM) was 1.56 µM and the IC50 (second compound 0.316 µM) was under 0.0316 µM. It also gave an IC50 (second compound 1 µM) of under 0.0316 µM, an IC50 (second compound 3.16 µM) of under 0.0316 µM and an IC50 (second compound 10 µM) of under 0.0316 µM. The viability, T/C [1] was 104%, the viability, T/C [2] was 93.5% and the viability, T/C [3] was 96.7%. For the same compound, the viability, T/C [4] was 63.9%, the viability, T/C [5] was 27.1% and the viability, T/C [6] was 0.72%. For the same compound, the viability, T/C [7] was 86.6%, the viability, T/C [8] was 90.8% and the viability, T/C [9] was 82.4%. It also gave a viability, T/C [10] of 65.1%, a viability, T/C [11] of 26.2% and a viability, T/C [12] of 0.23%. It also gave a viability, T/C [13] of 30.3%, a viability, T/C [14] of 22.9% and a viability, T/C [15] of 27.1%. The viability, T/C [16] was 27.5%, the viability, T/C [17] was 17.8% and the viability, T/C [18] was 0.7%. It also gave a viability, T/C [19] of 17.4%, a viability, T/C [20] of 19.8% and a viability, T/C [21] of 20.5%. The viability, T/C [22] was 18.4%, the viability, T/C [23] was 12.6% and the viability, T/C [24] was 0.5%. The viability, T/C [25] was 18.9%, the viability, T/C [26] was 18.3% and the viability, T/C [27] was 19.3%. For the same compound, the viability, T/C [28] was 18.5%, the viability, T/C [29] was 16.4% and the viability, T/C [30] was 0.52%. The viability, T/C [31] was 21.7%, the viability, T/C [32] was 16.4% and the viability, T/C [33] was 19.5%. For the same compound, the viability, T/C [34] was 23.9%, the viability, T/C [35] was 15.6% and the viability, T/C [36] was 1.56%.
